In ChEMBL document CHEMBL5576061, “The role of the methoxy group in approved drugs” (Eur J Med Chem, 2024):
pEC50, pIC50: −log10 of the molar value.

Test system: Hepatitis C virus
Assay: Antiviral activity against Hepatitis C virus genotype 1b infected in human Huh-7 cells assessed as reduction in viral infection
Format: functional, organism-based, Hepacivirus hominis
Conditions: not given

Structure (SMILES) | pEC50
COc1ccc2c(c1)[C@@H]1C[C@]1(C(=O)N1C[C@@H](C)O[C@@H](C)C1)Cn1c-2c(C2CCCCC2)c2ccc(C(=O)NS(=O)(=O)N(C)C)cc21 | 7.62

Test system: Hepatitis C virus
Assay: Antiviral activity against Hepatitis C virus genotype 1a infected in human Huh-7 cells assessed as reduction in viral infection
Format: functional, organism-based, Hepacivirus hominis
Conditions: not given

Structure (SMILES) | pEC50
COc1ccc2c(c1)[C@@H]1C[C@]1(C(=O)N1C[C@@H](C)O[C@@H](C)C1)Cn1c-2c(C2CCCCC2)c2ccc(C(=O)NS(=O)(=O)N(C)C)cc21 | 7.92

Biological target: not listed separately
Assay: Inhibition of tyrosine kinase (unknown origin)
Set-up: species or system Homo sapiens
Conditions: not given

Structure (SMILES) | pIC50
COc1cc(Nc2c(C#N)cnc3cc(OC)c(OC)cc23)c(Cl)cc1Cl | 8.37
COc1cc2ncc(C#N)c(Nc3ccc(Cl)cc3Cl)c2cc1OC | 7.52
COc1cc(Nc2c(C#N)cnc3cc(OCCCN4CCOCC4)c(OC)cc23)c(Cl)cc1Cl | 9.10
COc1ccc2ncc(C#N)c(Nc3ccc(Cl)cc3Cl)c2c1 | 6.49
COc1ccc2c(Nc3ccc(Cl)cc3Cl)c(C#N)cnc2c1 | 6.70
COc1cc2ncc(C#N)c(Nc3cc(O)c(Cl)cc3Cl)c2cc1OC | 6.72
CCOc1cc(Nc2c(C#N)cnc3cc(OC)c(OC)cc23)c(Cl)cc1Cl | 5.92
N#Cc1cnc2cc(O)c(O)cc2c1Nc1ccc(Cl)cc1Cl | < 6.00
N#Cc1cnc2ccccc2c1Nc1ccc(Cl)cc1Cl | < 6.00
COc1cc(Nc2c(C#N)cnc3cc(OCCCN4CCN(C)CC4)c(OC)cc23)c(Cl)cc1Cl [BOSUTINIB] | 8.92

Biological target: T1, Non-receptor tyrosine-protein kinase TYK2 (Homo sapiens, UniProt P29597)
T1 sequence (P29597 whole entry, the tested form may be a part): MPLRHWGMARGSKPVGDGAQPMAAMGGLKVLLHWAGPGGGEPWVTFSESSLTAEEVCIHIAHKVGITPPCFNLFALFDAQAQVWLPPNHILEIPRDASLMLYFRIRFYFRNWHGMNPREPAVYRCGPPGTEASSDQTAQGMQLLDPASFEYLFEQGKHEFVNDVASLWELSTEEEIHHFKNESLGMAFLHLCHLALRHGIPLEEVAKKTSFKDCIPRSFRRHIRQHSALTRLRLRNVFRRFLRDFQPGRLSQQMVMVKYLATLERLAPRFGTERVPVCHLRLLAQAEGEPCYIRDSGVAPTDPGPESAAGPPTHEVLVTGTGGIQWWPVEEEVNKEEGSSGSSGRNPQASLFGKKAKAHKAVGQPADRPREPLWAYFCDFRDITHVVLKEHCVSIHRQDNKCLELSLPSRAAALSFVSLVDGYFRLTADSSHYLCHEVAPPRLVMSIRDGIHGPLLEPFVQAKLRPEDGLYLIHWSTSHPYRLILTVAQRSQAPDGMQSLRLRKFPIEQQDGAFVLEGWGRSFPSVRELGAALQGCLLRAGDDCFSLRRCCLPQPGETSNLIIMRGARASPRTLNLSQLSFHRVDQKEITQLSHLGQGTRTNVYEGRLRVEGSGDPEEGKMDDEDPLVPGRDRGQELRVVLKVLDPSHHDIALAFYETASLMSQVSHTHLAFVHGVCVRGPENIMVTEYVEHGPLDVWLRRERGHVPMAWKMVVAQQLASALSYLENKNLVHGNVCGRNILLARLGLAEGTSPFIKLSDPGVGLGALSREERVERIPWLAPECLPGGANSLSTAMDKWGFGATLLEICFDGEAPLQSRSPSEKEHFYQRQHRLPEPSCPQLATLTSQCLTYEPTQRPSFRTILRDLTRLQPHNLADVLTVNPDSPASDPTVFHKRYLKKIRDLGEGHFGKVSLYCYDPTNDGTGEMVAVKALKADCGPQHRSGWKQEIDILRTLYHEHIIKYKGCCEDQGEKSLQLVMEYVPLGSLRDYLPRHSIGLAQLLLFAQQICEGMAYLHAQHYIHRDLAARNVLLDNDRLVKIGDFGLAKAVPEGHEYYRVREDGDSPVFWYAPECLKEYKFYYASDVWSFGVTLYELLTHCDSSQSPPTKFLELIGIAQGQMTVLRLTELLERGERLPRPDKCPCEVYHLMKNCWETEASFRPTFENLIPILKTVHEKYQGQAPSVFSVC
Assay: Inhibition of TYK2 (unknown origin) (575 to 869 residues) by HTRF assay
Conditions: not given

Structure (SMILES) | pIC50
CNC(=O)c1cnc(Nc2ccc(F)cn2)cc1Nc1cccc(C(=O)NC)c1OC | 9.22
CNC(=O)c1cccc(Nc2cc(Nc3ccc(F)cn3)ncc2C(=O)NC)c1 | 7.36

Biological target: T1, Non-receptor tyrosine-protein kinase TYK2
Assay: Inhibition of TYK2 (unknown origin)
Conditions: not given

Structure (SMILES) | pIC50
CNC(=O)c1cnc(NC(=O)C2CC2)cc1Nc1cccc(-c2ncn(C)n2)c1OC | 9.15
CNC(=O)c1cnc(Nc2cc(C)c(F)cn2)cc1Nc1cccc(-c2ncn(C)n2)c1OC | 9.40
[2H]C([2H])([2H])NC(=O)c1cnc(NC(=O)C2CC2)cc1Nc1cccc(-c2ncn(C)n2)c1OC | 9.52

Test system: Human immunodeficiency virus 1
Assay: Antiviral activity against HIV-1 3B infected in human MT4 cells assessed as reduction in virus-induced cytopathic effect incubated for 4 days by MTT assay
Format: functional, organism-based
Conditions: Human immunodeficiency virus 1, 3B, MT4, 96 h

Structure (SMILES) | pEC50
CNC(=O)c1ccc(OC)c2c(C(=O)C(=O)N3CCN(C(=O)c4ccccc4)CC3)c[nH]c12 | 9.12
CNC(=O)c1ncc(OC)c2c(C(=O)C(=O)N3CCN(C(=O)c4ccccc4)CC3)c[nH]c12 | 9.55

Test system: Human immunodeficiency virus 1
Assay: Antiviral activity against HIV-1 infected in human MT4 cells assessed as inhibition of viral growth
Format: functional, organism-based
Conditions: Human immunodeficiency virus 1, MT4

Structure (SMILES) | pEC50
O=C(O)c1c[nH]c2ccc(Cc3cccc(Cl)c3F)cc2c1=O | 6.09
O=C(O)c1cn(CCO)c2ccc(Cc3cccc(Cl)c3F)cc2c1=O | 7.12
O=C(O)c1cnc2ccc(Cc3ccccc3)cc2c1O | < 4.52

Biological target: Human immunodeficiency virus type 1 integrase (Human immunodeficiency virus 1, UniProt Q7ZJM1)
Sequence (Q7ZJM1 whole entry): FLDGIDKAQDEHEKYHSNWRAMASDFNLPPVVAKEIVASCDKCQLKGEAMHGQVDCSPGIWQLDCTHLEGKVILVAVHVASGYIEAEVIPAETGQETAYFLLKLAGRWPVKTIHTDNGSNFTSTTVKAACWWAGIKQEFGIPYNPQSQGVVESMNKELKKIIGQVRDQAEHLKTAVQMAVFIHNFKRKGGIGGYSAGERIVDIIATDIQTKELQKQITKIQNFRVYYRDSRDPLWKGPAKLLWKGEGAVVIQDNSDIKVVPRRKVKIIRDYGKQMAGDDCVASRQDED
Assay: Inhibition of HIV-1 integrase
Conditions: not given

Structure (SMILES) | pIC50
C=C[C@@H]1C[C@]1(NC(=O)[C@@H]1C[C@@H](Oc2ncc(OC)c3ccccc23)CN1C(=O)[C@@H](NC(=O)OC(C)(C)C)C(C)(C)C)C(=O)NS(=O)(=O)C1CC1 | 8.70
C=C[C@@H]1C[C@]1(NC(=O)[C@@H]1C[C@@H](Oc2nccc3ccccc23)CN1C(=O)[C@@H](NC(=O)OC(C)(C)C)C(C)(C)C)C(=O)NS(=O)(=O)C1CC1 | 8.15
C=C[C@@H]1C[C@]1(NC(=O)[C@@H]1C[C@@H](Oc2nccc3ccc(Cl)cc23)CN1C(=O)[C@@H](NC(=O)OC(C)(C)C)C(C)(C)C)C(=O)NS(=O)(=O)C1CC1 | 7.92

Test system: Human immunodeficiency virus 1
Assay: Antiviral activity against HIV-1 HTLV-IIIB infected in human MT4 cells assessed as reduction in virus induced cytopathic effect by immunofluorescence assay
Format: functional, organism-based
Conditions: Human immunodeficiency virus 1, MT4

Structure (SMILES) | pEC50
C=C[C@@H]1C[C@]1(NC(=O)[C@@H]1C[C@@H](Oc2ncc(OC)c3ccc(Cl)cc23)CN1C(=O)[C@@H](NC(=O)OC(C)(C)C)C(C)(C)C)C(=O)NS(=O)(=O)C1CC1 | 8.22
C=C[C@@H]1C[C@]1(NC(=O)[C@@H]1C[C@@H](Oc2ncc(OC)c3ccccc23)CN1C(=O)[C@@H](NC(=O)OC(C)(C)C)C(C)(C)C)C(=O)NS(=O)(=O)C1CC1 | 7.72
C=C[C@@H]1C[C@]1(NC(=O)[C@@H]1C[C@@H](Oc2nccc3ccccc23)CN1C(=O)[C@@H](NC(=O)OC(C)(C)C)C(C)(C)C)C(=O)NS(=O)(=O)C1CC1 | 7.22
C=C[C@@H]1C[C@]1(NC(=O)[C@@H]1C[C@@H](Oc2nccc3ccc(Cl)cc23)CN1C(=O)[C@@H](NC(=O)OC(C)(C)C)C(C)(C)C)C(=O)NS(=O)(=O)C1CC1 | 7.70
